Results from PMC8657723, “Novel Pituitary Actions of TAC4 Gene Products in Teleost” (International Journal of Molecular Sciences, 2021).

What follows are compounds tested on grass carp pituitary cells (assay: Receptor antagonist / pathway inhibitor co-treatment on HK2-induced mRNA expression in grass carp pituitary cells). Details: inhibitor 1 μM with HK2 1 μM, 24 h co-treatment.
Type: cell-based, grass carp (Ctenopharyngodon idellus)
Protocol: In this experiment, a pharmacological approach was used to clarify the receptor specificity for SLα and PRL regulation by HK2. Pituitary cells were incubated for 24 h with grass carp HK2 (1 μM) with simultaneous treatment of the NK1R antagonist Rolaptiant (10 μM) or NK3R antagonist SB222200 (10 μM), respectively.
Figure 7 The receptor specificity and signal transduction for PRL and SLα regulation by HK2 in grass carp pituitary cells. (A) Effects of NKR subtype-specific antagonists on HK2-induced PRL and SLα mRNA expression. Pituitary cells were challenged for 24 h with grass carp HK2 (1 μM) in the presence or absence of the NK1R antagonist Rolaptiant (10 μM) or NK3R antagonist SB22200 (10 μM), respectively. (B) Effects of 24-h co-treatment with AC inhibitor MDL12330A (10 μM) or PKA inhibitor H89 (10 μM) on HK2-induced PRL and SLα mRNA expression. (C) Effects of 24-h co-treatment with PLC inhibitor U73122, PKC inhibitor GF109203X (10 μM), or IP3 receptor blocker 2-APB (10 μM) on HK2-induced PRL and SLα mRNA expression. (D) Effects of 24-h co-treatment with the VSCC inhibitor nifedipine (10 μM), CaM antagonist calmidazolium (1 μM) or CaMK-II blocker KN62 (10 μM) on HK2-induced PRL and SLα mRNA expression. After drug treatment, the total RNA of the cells was extracted by the Trizol method, and the expression of various genes was detected by RT-PCR. Data presented were expressed as mean ± SEM, and the differences between groups were significant at p-value < 0.05 by labeling diverse letters.
Figure 8 The receptor specificity and signal transduction for CART2, NMB1, and UTS1 regulation by HK2 in grass carp pituitary cells. (A) The pituitary cells were treated for 24 h with grass carp HK2 (1 μM) in the presence or absence of NK1R antagonist Rolaptiant (10 μM) or NK3R antagonist SB222200 (10 μM). (B) Effects of 24-h co-treatment with an AC inhibitor MDL12330A (10 μM) or PKA inhibitor H89 (10 μM) on HK2-induced CART2, UTS1, or NMB1 mRNA expression. (C) Effects of 24h co-treatment with a PLC inhibitor U73122, PKC inhibitor GF109203X (10 μM), or IP3 receptor blocker 2-APB (10 μM) on HK2-induced CART2, UTS1 or NMB1 mRNA expression. (D) Effects of 24-h co-treatment with the VSCC inhibitor nifedipine (10 μM), CaM antagonist calmidazolium (1 μM), or CaMK-II blocker KN62 (10 μM) on HK2-induced CART2, UTS1 or NMB1 mRNA expression.

Row | Structure (SMILES) | effect on HK2-induced CART2 mRNA expression | effect on HK2-induced NMB1 mRNA expression | effect on HK2-induced PRL mRNA expression | effect on HK2-induced SLα mRNA expression | effect on HK2-induced UTS1 mRNA expression
1 | Clc1ccc(C(c2ccc(Cl)cc2)n2cc[n+](CC(OCc3ccc(Cl)cc3Cl)c3ccc(Cl)cc3Cl)c2)cc1 (stereo not drawn) [calmidazolium] | suppressed/totally abolished | suppressed/totally abolished | suppressed or totally abolished | suppressed or totally abolished | suppressed/totally abolished

Same assay, conditions: inhibitor 10 μM with HK2 1 μM, 24 h co-treatment

Row | Structure (SMILES) | effect on HK2-induced CART2 mRNA expression | effect on HK2-induced NMB1 mRNA expression | effect on HK2-induced PRL mRNA expression | effect on HK2-induced SLα mRNA expression | effect on HK2-induced UTS1 mRNA expression
2 | NCCOB(c1ccccc1)c1ccccc1 [2-APB] | effective in blocking | effective in blocking | totally abolished | totally abolished | effective in blocking
3 | CN(C)CCCn1cc(C2=C(c3c[nH]c4ccccc34)C(=O)NC2=O)c2ccccc21 [GF109203X] | effective in blocking | effective in blocking | totally abolished | totally abolished | effective in blocking
4 | O=S(=O)(NCCNC/C=C/c1ccc(Br)cc1)c1cccc2cnccc12 [H89] | abolished | abolished | effective in blocking | effective in blocking | abolished
5 | CN([C@@H](Cc1ccc(OS(=O)(=O)c2cccc3cnccc23)cc1)C(=O)N1CCN(c2ccccc2)CC1)S(=O)(=O)c1cccc2cnccc12 [KN62] | suppressed/totally abolished | suppressed/totally abolished | suppressed or totally abolished | suppressed or totally abolished | suppressed/totally abolished
6 | Cl.c1ccc(C2CCCC2NC2=NCCCCCCCCCCC2)cc1 (stereo not drawn) [MDL12330A] | abolished | abolished | effective in blocking | effective in blocking | abolished
7 | C[C@@H](OC[C@@]1(c2ccccc2)CC[C@]2(CCC(=O)N2)CN1)c1cc(C(F)(F)F)cc(C(F)(F)F)c1 [Rolaptiant] |  | not with the NK1R antagonist Rolaptiant | could not be totally abolished | only partially block | 
8 | CC[C@H](NC(=O)c1c(C)c(-c2ccccc2)nc2ccccc12)c1ccccc1 [SB222200] | totally abolished | totally abolished | could not be totally abolished | totally blocked | totally abolished
9 | COc1ccc2c(c1)CC[C@@H]1[C@@H]2CC[C@]2(C)[C@@H](NCCCCCCN3C(=O)C=CC3=O)CC[C@@H]12 [U73122] | effective in blocking | effective in blocking | totally abolished | totally abolished | effective in blocking
10 | COC(=O)C1=C(C)NC(C)=C(C(=O)OC)C1c1ccccc1[N+](=O)[O-] [nifedipine] | suppressed/totally abolished | suppressed/totally abolished | suppressed or totally abolished | suppressed or totally abolished | suppressed/totally abolished
